Values after ≈ are worked out from the molar mass of the structure shown. Where a SMILES comes first, the peptide text is derived from it. Bridges are numbered along the chain shown (N, C = ends). The star is where a group is joined. Octanoyl = CCCCCCCC(=O)*
Key:
PLC-γ1 = target: T1, PLC-γ1 (Bos taurus, UniProt P08487); assay: PLC-inhibiting activity ([3H]PIP2 hydrolysis); format: biochemical; conditions: test peptide concentration 220 μM; PI-PLC-γ1 from bovine thymus; 37° C., 10 minutes
T1 construct: A sample of PLC-γ1 was prepared from bovine thymus; from tissue; host or cells: bovine thymus
T1 sequence (P08487 1-1291): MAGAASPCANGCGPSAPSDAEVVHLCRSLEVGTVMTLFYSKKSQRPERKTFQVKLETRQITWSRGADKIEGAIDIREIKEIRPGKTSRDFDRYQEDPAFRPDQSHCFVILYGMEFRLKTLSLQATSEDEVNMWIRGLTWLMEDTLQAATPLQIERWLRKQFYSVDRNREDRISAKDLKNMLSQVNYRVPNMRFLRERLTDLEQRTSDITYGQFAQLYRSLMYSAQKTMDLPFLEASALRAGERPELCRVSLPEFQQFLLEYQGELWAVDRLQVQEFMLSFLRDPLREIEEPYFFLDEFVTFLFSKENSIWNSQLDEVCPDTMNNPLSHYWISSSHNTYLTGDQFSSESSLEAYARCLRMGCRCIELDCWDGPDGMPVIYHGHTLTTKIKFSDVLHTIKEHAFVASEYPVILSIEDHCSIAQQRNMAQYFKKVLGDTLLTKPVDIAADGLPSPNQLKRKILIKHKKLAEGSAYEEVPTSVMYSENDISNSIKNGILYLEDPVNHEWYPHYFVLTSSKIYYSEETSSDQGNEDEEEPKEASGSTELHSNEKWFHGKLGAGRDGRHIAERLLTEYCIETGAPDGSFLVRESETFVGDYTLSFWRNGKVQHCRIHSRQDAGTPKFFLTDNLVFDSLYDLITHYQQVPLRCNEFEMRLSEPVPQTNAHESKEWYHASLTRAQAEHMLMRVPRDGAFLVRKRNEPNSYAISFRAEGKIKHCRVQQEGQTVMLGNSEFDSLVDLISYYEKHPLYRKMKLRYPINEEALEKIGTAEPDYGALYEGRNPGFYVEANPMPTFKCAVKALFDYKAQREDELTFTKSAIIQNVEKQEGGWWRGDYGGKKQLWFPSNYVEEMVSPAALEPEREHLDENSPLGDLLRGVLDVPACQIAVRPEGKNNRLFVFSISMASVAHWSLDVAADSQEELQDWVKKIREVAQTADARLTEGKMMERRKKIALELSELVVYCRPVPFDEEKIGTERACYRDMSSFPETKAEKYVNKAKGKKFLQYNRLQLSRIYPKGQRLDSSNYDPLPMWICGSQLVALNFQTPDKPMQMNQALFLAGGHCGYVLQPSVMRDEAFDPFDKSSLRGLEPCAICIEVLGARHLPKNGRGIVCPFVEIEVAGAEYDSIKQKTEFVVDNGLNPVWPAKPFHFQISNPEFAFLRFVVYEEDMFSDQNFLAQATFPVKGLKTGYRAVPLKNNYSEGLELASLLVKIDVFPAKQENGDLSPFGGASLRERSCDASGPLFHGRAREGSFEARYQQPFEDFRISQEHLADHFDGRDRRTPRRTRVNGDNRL
Experimental: A sample of PLC-γ1 was prepared from bovine thymus according to the method described in Y. Homma et al., Biochem.J., 269, 13 (1990).
A solution having the composition shown in Table 2 was prepared on ice and the reaction was initiated by heating it to 37° C. After incubation for 10 minutes, 2 ml of a chloroform-methanol (2:1, V/V) mixed solution was added to stop the reaction. The produced inositol phosphate was extracted with 0.5 ml of 1N hydrochloric acid. The extract was separated into two liquid phases by centrifugation (2000×g, 3 minutes) and the amount of ^3 H in the supernatant (0.7 ml) was measured with a scintillation counter. […]
Percent inhibition (X) was calculated from the following equation.
where A is the obtained value of specific radioactivity, B is the value of specific radioactivity when the same amount of water was added instead of an aqueous solution of a test peptide, and C is the value of specific radioactivity when the same amount of water was added instead of a sample and an aqueous solution of a test peptide.

KMS-4 cells = assay: Cell proliferation-inhibiting activity (BrdU incorporation); format: cell-based; conditions: test peptide concentration 6 μM, incubation for 17 hours
Experimental: The cell proliferation-inhibiting activity of the test peptides was determined using a cell proliferation-detecting kit available from Amersham in the following manner. KMS-4 cells (M. Nanba et al., International Journal of Cancer, 32, 697 (1983)) were added to a DMEM medium containing a 10% fetal calf serum (available from Nissui Pharmaceutical) and the cell concentration was adjusted to 1-2×10^4 cells/ml. The resulting cell suspension (1 ml) was then placed in each well of a 24-well plate (available from Corning) and incubated in a CO2 incubator (37° C., 5% CO2) for 2 days. Subsequently, the medium was replaced with a fresh DMEM medium containing a 10% fetal calf serum, and a test peptide was added, followed by incubation for 17 hours. […] The number of cells which incorporated BrdU and the total number of cells were counted within one visual field (about 200 cells) under microscopic examination and the percentage (%) of the stained cell counts per visual field was calculated. […] Cell proliferation-inhibiting activity was expressed by percent cell proliferation inhibition (X) which was calculated from the following equation. […]

[1] = system: Proteus vulgaris ATCC6897; format: cell-based; conditions: ATCC6897, pH 7
Experimental: Antimicrobial activity was determined by an agar dilution method using a medium consisting of Bacto-tryptone (available from Difco) (3 g/l), meat extract (1 g/l), glucose (1 g/l) and agar (16 g/l) (pH 7.0).

inhibition at 220 µM (PLC-γ1): 56%
minimum inhibitory concentrations (MIC) [1]: 166 µg/mL (≈ 91 µM)
Compound: CCCCCCCC(=O)N[C@H]1CSSC[C@@H](C(N)=O)NC(=O)[C@H](C(C)C)NC(=O)[C@@H]2CCCN2C(=O)[C@H](Cc2ccc(O)cc2)NC(=O)[C@H](CCCNC(=N)N)NC(=O)[C@H](CC(C)C)NC(=O)[C@H](CCCNC(=N)N)NC(=O)[C@H](CCSC)NC(=O)[C@H](CCCCN)NC(=O)[C@H](CCCNC(=N)N)NC(=O)[C@H](Cc2ccc(O)cc2)NC(=O)[C@H](CC(C)C)NC1=O [Compound (I-4)] (Octanoyl-CLYRKMRLRYPVC-NH2; disulfide 1-13)
Inhibition (%) of cell proliferation (KMS-4 cells): 61%

From US5847074A, “Phospholipase C-inhibiting peptides” (Kyowa Hakko Kogyo Co., Ltd., priority 1993, dated 1998)
